What all share (experiment): cells
Holding throughout (type): functional, cell-based

Assay [1] concerns NCI-H1975. The conditions noted are these: Homo sapiens, NCI-H1975, 72 h.
Description: Antiproliferative activity against human NCI-H1975 cells assessed as inhibition of cell growth incubated for 72 hrs by MTT assay
In assay [2] the test system is PC-3. The conditions noted are these: Homo sapiens, PC-3, 72 h.
Description: Antiproliferative activity against human PC-3 cells assessed as inhibition of cell growth incubated for 72 hrs by MTT assay
Assay [3] has as its system MGC-803. The conditions noted are these: Homo sapiens, MGC-803, 72 h.
Description: Antiproliferative activity against human MGC-803 cells assessed as inhibition of cell growth incubated for 72 hrs by MTT assay
Assay [4] deals with MDA-MB-231. The settings on record: Homo sapiens, MDA-MB-231, 72 h.

As a reminder, the IC50 is the concentration that gives 50% inhibition.

With `C=CC(=O)Nc1cccc(NC(=O)CSc2nc(Nc3ccccc3C)c3ccccc3n2)c1`, the concentration for half-maximal inhibition (IC50) worked out at 9.92 µM in assay [1], 23.2 µM in assay [2], 30.2 µM in assay [3] and 20.4 µM in assay [4].
On to `C=CC(=O)Nc1cccc(NC(=O)CSc2nc(Nc3ccc(CC)cc3)c3ccccc3n2)c1`, for which the IC50 in assay [1] was determined as 8.27 µM; in assay [2], 24.3 µM; in assay [3], 8.01 µM; in assay [4], 14.4 µM.
For the compound `O=C(CSc1nc(Nc2ccccc2)c2ccccc2n1)Nc1ccc([N+](=O)[O-])cc1`, the IC50 in assay [1] is 13 µM; in assay [2], 25 µM; in assay [3] it was over 50 µM; in assay [4], 16.8 µM.
Taken in the same sequence, the figures for `O=C(CSc1nc(Nc2ccccc2)c2ccccc2n1)Nc1cccc(Cl)c1` were 8.46 µM, 12.6 µM, 14.3 µM and 16.5 µM.
Regarding `C=CC(=O)Nc1cccc(NC(=O)CSc2nc(Nc3ccc(F)cc3)c3ccccc3n2)c1`, the IC50 in assay [1] was 4.43 µM; in assay [2] it was 8.24 µM; in assay [3], 8.29 µM; in assay [4], 9.49 µM.
Regarding `O=C(CSc1nc(Nc2ccccc2)c2ccccc2n1)Nc1ccc(Cl)cc1`, the IC50 in assay [1] is 8.04 µM; in assay [2] it was 12.8 µM; in assay [3] it was 40.4 µM; in assay [4], 17.2 µM.
As for `C=CC(=O)Nc1cccc(NC(=O)CSc2nc(Nc3cc(OC)c(OC)c(OC)c3)c3ccccc3n2)c1`, the IC50 in assay [1], in assay [2], in assay [3] and in assay [4] was over 50 µM throughout.
For the compound `O=C(CSc1nc(Nc2ccccc2)c2ccccc2n1)Nc1ccc(Cl)cc1Cl`, the IC50 in assay [1] was 8.41 µM; in assay [2], 9.11 µM; in assay [3], 12.3 µM; in assay [4], 19.4 µM.
The like results for `C=CC(=O)Nc1cccc(NC(=O)CSc2nc(Nc3ccc(Br)cc3)c3ccccc3n2)c1` were, in that order, 6.28 µM, 12.4 µM, 11.5 µM and 17.2 µM.
The like results for `O=C(CSc1nc(Nc2ccccc2)c2ccccc2n1)Nc1cccc([N+](=O)[O-])c1` were, in that order, 17.9 µM, 11.8 µM, 28.1 µM and 33 µM.
Consider `C=CC(=O)Nc1cccc(NC(=O)CSc2nc(Nc3ccccc3)c3ccccc3n2)c1`, for which the IC50 in assay [1] amounted to 8.12 µM; in assay [2] it was 8.74 µM; in assay [3], 7.31 µM; in assay [4], 10.2 µM.
On to `C=CC(=O)Nc1cccc(NC(=O)CSc2nc(Nc3ccccc3Br)c3ccccc3n2)c1`, for which the IC50 was 19.3 µM in assay [1], 17.1 µM in assay [2], 12.8 µM in assay [3] and 15.2 µM in assay [4].
The like results for `O=C(CSc1nc(Nc2ccccc2)c2ccccc2n1)Nc1ccc(Cl)c(Cl)c1` were, in that order, 10.4 µM, 12.1 µM, 37.9 µM and 14.5 µM.
For the compound `O=C(CSc1nc(Nc2ccccc2)c2ccccc2n1)Nc1ccccc1F`, the IC50 was 9.35 µM in assay [1], 12.4 µM in assay [2], 10.7 µM in assay [3] and over 50 µM in assay [4].
As to `O=C(CSc1nc(Nc2ccccc2)c2ccccc2n1)Nc1ccc(C(F)(F)F)cc1`, the IC50 in assay [1] stood at 11.7 µM; in assay [2] it was 10.4 µM; in assay [3], 8.67 µM; in assay [4], 11.1 µM.
Taken in the same sequence, the figures for `COc1cccc(NC(=O)CSc2nc(Nc3ccccc3)c3ccccc3n2)c1` were 19.4 µM, 11.6 µM, 10 µM and 21.7 µM.
On to `C=CC(=O)Nc1cccc(NC(=O)CSc2nc(Nc3ccccc3Cl)c3ccccc3n2)c1`, for which the IC50 in assay [1] is 10 µM; in assay [2], 14.4 µM; in assay [3] it was 20.7 µM; in assay [4] it was 12.7 µM.
On to `C=CC(=O)Nc1cccc(NC(=O)CSc2nc(Nc3cccc(Br)c3)c3ccccc3n2)c1`, for which the IC50 in assay [1] was found to be 12.1 µM; in assay [2], 15 µM; in assay [3], 11.9 µM; in assay [4], 19.4 µM.
Taken in the same sequence, the figures for `C=CC(=O)Nc1cccc(NC(=O)CSc2nc(Nc3ccc(C(F)(F)F)cc3)c3ccccc3n2)c1` were 12.9 µM, 12.5 µM, 12.1 µM and 11.5 µM.
Taken in the same sequence, the figures for `C=CC(=O)Nc1cccc(NC(=O)CSc2nc(Nc3ccc(F)c(Cl)c3)c3ccccc3n2)c1` were over 50 µM, over 50 µM, 7.85 µM and 10.6 µM.
Taken in the same sequence, the figures for `CCc1cccc(NC(=O)CSc2nc(Nc3ccccc3)c3ccccc3n2)c1` were 12 µM, 11 µM, 15.8 µM and 12.4 µM.
For the compound `C=CC(=O)Nc1cccc(NC(=O)CSc2nc(Nc3cccc(Cl)c3)c3ccccc3n2)c1`, the IC50 in assay [1] was 9.46 µM; in assay [2], 12.3 µM; in assay [3], 7.83 µM; in assay [4] it was 16.3 µM.
The like results for `C=CC(=O)Nc1cccc(NC(=O)CSc2nc(Nc3cccc(OC)c3)c3ccccc3n2)c1` were, in that order, 7.94 µM, 34.9 µM, 24.2 µM and 12.9 µM.
Turning to `C=CC(=O)Nc1cccc(NC(=O)CSc2nc(Nc3ccc(Cl)cc3)c3ccccc3n2)c1`, the IC50 worked out at 7.58 µM in assay [1], 10.8 µM in assay [2], 14.3 µM in assay [3] and 10.3 µM in assay [4].
The like results for `O=C(CSc1nc(Nc2ccccc2)c2ccccc2n1)Nc1ccc(F)c(Cl)c1` were, in that order, 9.39 µM, 15.5 µM, 20.9 µM and 21.6 µM.
Turning to `C=CC(=O)Nc1cccc(NC(=O)CSc2nc(Nc3ccccc3F)c3ccccc3n2)c1`, the IC50 in assay [1] amounted to 6.58 µM; in assay [2], 9.34 µM; in assay [3], 26.1 µM; in assay [4], 18.7 µM.
Taken in the same sequence, the figures for `O=C(CSc1nc(Nc2ccccc2)c2ccccc2n1)Nc1ccccc1Br` were 10.3 µM, 19.8 µM, 18.6 µM and 14.1 µM.
As for `C=CC(=O)Nc1cccc(NC(=O)CSc2nc(Nc3ccc(Cl)c(Cl)c3)c3ccccc3n2)c1`, the half-inhibitory concentration (IC50) is 19.1 µM in assay [1], 27.6 µM in assay [2], over 50 µM in assay [3] and 17.7 µM in assay [4].
Consider `C=CC(=O)Nc1cccc(NC(=O)CSc2nc(Nc3cccc([N+](=O)[O-])c3)c3ccccc3n2)c1`, for which the half-inhibitory concentration (IC50) is 22.6 µM in assay [1], 46.3 µM in assay [2], over 50 µM in assay [3] and over 50 µM in assay [4].
Consider `C=CC(=O)Nc1cccc(NC(=O)CSc2nc(Nc3ccc(Cl)cc3Cl)c3ccccc3n2)c1`, for which the IC50 in assay [1] was 5.99 µM; in assay [2], 25.7 µM; in assay [3], 12.1 µM; in assay [4] it was 23.1 µM.
Turning to `O=C(CSc1nc(Nc2ccccc2)c2ccccc2n1)Nc1ccc(F)cc1`, the IC50 in assay [1] is 16.5 µM; in assay [2] it was 9.56 µM; in assay [3], over 50 µM; in assay [4], 34.1 µM.
`CCc1ccc(NC(=O)CSc2nc(Nc3ccccc3)c3ccccc3n2)cc1`: the IC50 in assay [1] is 9.91 µM; in assay [2], 17.9 µM; in assay [3] it was over 50 µM; in assay [4] it was 33.9 µM.
